| Compound | melting point [°C] |
| --- | --- |
| CC(=O)NCC(=O)N[C@H]1CC[C@H](CCN2CCN(c3ccccc3F)CC2)CC1 [Example 134, 2-Acetylamino-N-(4-{2-[4-(2-fluorophenyl)piperazin-1-yl]ethyl}cyclohexyl)acetamide] | 217 |
| CC(C)(C)OCC(=O)N[C@H]1CC[C@H](CCN2CCN(c3cccc(C(F)(F)F)c3)CC2)CC1 [Example 135, 2-tert-Butoxy-N-(4-{2-[4-(3-trifluoromethylphenyl)piperazin-1-yl]ethyl}cyclohexyl)acetamide trans/cis 95/5] | 81 |
| Cc1c(Cl)cccc1N1CCN(CC[C@H]2CC[C@H](NC(=O)CC#N)CC2)CC1 [Example 136, N-(4-{2-[4-(3-Chloro-2-methylphenyl)piperazin-1-yl]ethyl}cyclohexyl)-2-cyanoacetamide] | 179 to 182 |
| CCOCC(=O)N[C@H]1CC[C@H](CCN2CCN(c3cccc(Cl)c3C)CC2)CC1 [Example 137, N-(4-{2-[4-(3-Chloro-2-methylphenyl)piperazin-1-yl]ethyl}cyclohexyl)-2-ethoxyacetamide] | 143 |
| COCC(=O)N[C@H]1CC[C@H](CCN2CCN(c3cc(C#N)cc(C(F)(F)F)c3)CC2)CC1 [Example 139, N-(4-{2-[4-(3-Cyano-5-trifluoromethylphenyl)piperazin-1-yl]ethyl}cyclohexyl)-2-methoxyacetamide] | 140 |
| CCOCC(=O)N[C@H]1CC[C@H](CCN2CCN(c3cc(C#N)cc(C(F)(F)F)c3)CC2)CC1 [Example 140, N-(4-{2-[4-(3-Cyano-5-trifluoromethylphenyl)piperazin-1-yl]ethyl}cyclohexyl)-2-ethoxyacetamide] | 133 |
| N#CCC(=O)N[C@H]1CC[C@H](CCN2CCN(c3cccc(Cl)c3Cl)CC2)CC1 [Example 143, 2-Cyano-N-(4-{2-[4-(2,3-dichlorophenyl)piperazin-1-yl]ethyl}cyclohexyl)acetamide] | 188 |
| CC(=O)NCC(=O)N[C@H]1CC[C@H](CCN2CCN(c3cccc(F)c3F)CC2)CC1 [Example 145, 2-Acetylamino-N-(4-{2-[4-(2,3-difluorophenyl)piperazin-1-yl]ethyl}cyclohexyl)acetamide] | 218 |
| CN(C)c1cccc(N2CCN(CC[C@H]3CC[C@H](NC(=O)CC#N)CC3)CC2)c1 [Example 150, 2-Cyano-N-(4-{2-[4-(3-dimethylaminophenyl)piperazin-1-yl]ethyl}cyclohexyl)acetamide] | 177 |
| CC(=O)N1CCC(C(=O)N[C@H]2CC[C@H](CCN3CCN(c4cccc(C(F)(F)F)c4)CC3)CC2)CC1 [Example 153, 1-Acetylpiperidine-4-carboxylic acid (4-{2-[4-(3-trifluoro-methylphenyl)piperazin-1-yl]ethyl}cyclohexyl)amide] | 173 |
| N#CCC(=O)N[C@H]1CC[C@H](CCN2CCN(c3cccc(OC(F)(F)F)c3)CC2)CC1 [Example 157, 2-Cyano-N-(4-{2-[4-(3-trifluoromethoxyphenyl)piperazin-1-yl]ethyl}cyclohexyl)acetamide] | 173 to 174 |
| N#CCC(=O)N[C@H]1CC[C@H](CCN2CCN(c3cccc(C(F)(F)F)c3F)CC2)CC1 [Example 158, 2-Cyano-N-(4-{2-[4-(2-fluoro-3-trifluoromethylphenyl)piperazin-1-yl]ethyl}cyclohexyl)acetamide] | 194 |
| N#CCCCC(=O)N[C@H]1CC[C@H](CCN2CCN(c3cccc(C(F)(F)F)c3)CC2)CC1 [Example 161, 4-Cyano-N-(4-{2-[4-(3-trifluoromethylphenyl)piperazin-1-yl]ethyl}cyclohexyl)butanamide] | 149 |
| COc1ccc(C(F)(F)F)cc1N1CCN(CC[C@H]2CC[C@H](NC(=O)CC#N)CC2)CC1 [Example 165, 2-Cyano-N-(4-{2-[4-(2-methoxy-5-trifluoromethylphenyl)piperazin-1-yl]ethyl}cyclohexyl)acetamide] | 183 |
| CCN(CC)CCC(=O)N[C@H]1CC[C@H](CCN2CCN(c3cccc(C(F)(F)F)c3)CC2)CC1 [Example 167, 3-Diethylamino-N-(4-{2-[4-(3-trifluoromethylphenyl)piperazin-1-yl]ethyl}cyclohexyl)propanamide trans/cis 85/15] | 77 |

Continued, values first:

| melting point [°C] | Compound |
| --- | --- |
| 186 | N#CCC(=O)N[C@H]1CC[C@H](CCN2CCN(c3cc(C#N)cc(C(F)(F)F)c3)CC2)CC1 [Example 138, 2-Cyano-N-(4-{2-[4-(3-cyano-5-trifluoromethylphenyl)piperazin-1-yl]ethyl}cyclohexyl)acetamide] |
| 192 | Cc1cc(C)cc(N2CCN(CC[C@H]3CC[C@H](NC(=O)CC#N)CC3)CC2)c1 [Example 148, 2-Cyano-N-(4-{2-[4-(3,5-dimethylphenyl)piperazin-1-yl]ethyl}cyclohexyl)acetamide] |
| 142 | CCc1cccc(N2CCN(CC[C@H]3CC[C@H](NC(=O)CC#N)CC3)CC2)c1 [Example 149, 2-Cyano-N-(4-{2-[4-(3-ethylphenyl)piperazin-1-yl]ethyl}cyclohexyl)acetamide] |
| 200 | N#CCC(=O)N[C@H]1CC[C@H](CCN2CCN(c3cc(Cl)cc(Cl)c3)CC2)CC1 [Example 151, 2-Cyano-N-(4-{2-[4-(3,5-dichlorophenyl)piperazin-1-yl]ethyl}cyclohexyl)acetamide] |
| 184 | Cc1ccc(C)c(N2CCN(CC[C@H]3CC[C@H](NC(=O)CC#N)CC3)CC2)c1 [Example 152, 2-Cyano-N-(4-{2-[4-(2,5-dimethylphenyl)piperazin-1-yl]ethyl}cyclohexyl)acetamide] |
| 171 to 172 | Cc1ccc(Cl)cc1N1CCN(CC[C@H]2CC[C@H](NC(=O)CC#N)CC2)CC1 [Example 155, N-(4-{2-[4-(5-Chloro-2-methylphenyl)piperazin-1-yl]ethyl}cyclohexyl)-2-cyanoacetamide] |
| 186 to 187 | N#CCC(=O)N[C@H]1CC[C@H](CCN2CCN(c3cccc(Cl)c3)CC2)CC1 [Example 156, N-(4-{2-[4-(3-Chlorophenyl)-piperazin-1-yl]ethyl}cyclohexyl)-2-cyanoacetamide] |
| 196 | N#CCC(=O)N[C@H]1CC[C@H](CCN2CCN(c3cc(F)cc(F)c3)CC2)CC1 [Example 159, 2-Cyano-N-(4-{2-[4-(3,5-difluorophenyl)piperazin-1-yl]ethyl}cyclohexyl)acetamide trans/cis 95/5] |
| 183 to 184 | COc1cc(N2CCN(CC[C@H]3CC[C@H](NC(=O)CC#N)CC3)CC2)cc(C(F)(F)F)c1 [Example 160, 2-Cyano-N-(4-{2-[4-(3-methoxy-5-trifluoromethylphenyl)piperazin-1-yl]ethyl}cyclohexyl)acetamide] |
| 188 | N#CCC(=O)N[C@H]1CC[C@H](CCN2CCN(c3ccc(F)cc3F)CC2)CC1 [Example 162, 2-Cyano-N-(4-{2-[4-(2,4-difluorophenyl)piperazin-1-yl]ethyl}cyclohexyl)acetamide] |
| 175 | Cc1cccc(N2CCN(CC[C@H]3CC[C@H](NC(=O)CC#N)CC3)CC2)c1 [Example 166, 2-Cyano-N-{4-[2-(4-m-tolylpiperazin-1-yl)ethyl]cyclohexyl}acetamide] |
